Reference: patent US20090050143A1, “MEDICINAL FORMULATION CONTAINER WITH A TREATED METAL SURFACE” (priority 2006, published 2009)

Experiments:
Format in all cases: physicochemical
[1] = Triamcinolone acetonide remaining after storage with aluminum oxide powder (HPLC)
Experimental: Aluminum oxide powder (Aldrich, neutral, activated Brockmann I, 150 mesh), which mimics aluminum oxide existing on the inner surface of aluminum containers was surface treated by being immersed in a 0.1% w/w solution of A1 in methyl tertiary butyl ether (analytical reagent grade) for 30 minutes while exposed to ultrasonic agitation. The methyl tertiary butyl ether solution was decanted and the powder was allowed to air dry. A triamcinolone stock solution (4 mM) was prepared by adding triamcinolone acetonide to ethanol. Approximately 0.1 g of treated powder was then placed in a vial containing 2 mL of triamcinolone stock solution and stored at 70° C. An extract of the triamcinolone solution was taken after one day of storage and analyzed using high performance liquid chromatography to determine remaining drug content. The amount of drug remaining is reported (in Table 1) as a percentage of the initial amount of drug present and was determined as the average of 3 independent measurements.
Aluminum oxide powder was surface treated and tested as described above with a variety of other organic surface treatment compounds. The type of compound, the amount of triamcinolone acetonide (TA) remaining after 1 day storage, and the percentage of aluminum oxide (AO) powder remaining chemically treated after exposure to drug solution in shown in Table 1.
Approximately 0.1 g of untreated aluminum oxide powder was placed in a vial containing 2 mL of triamcinolone stock solution and stored at 70° C. An extract of the triamcinolone solution was taken after one day of storage and analyzed using high performance liquid chromatography to determine remaining drug content.

[2] = Valve deposition measurement
Description: Metered dose inhalers (MDIs) were fired 122 times to waste. The MDI was shaken for not less than 3 seconds prior to each actuation with a delay of at least 30 seconds between successive actuations. An additional 5 shots were then fired to waste with the MDI in a valve up orientation to clean out the valve. The metering valves were then removed from the MDIs and the outside of the stem cleaned to remove any residual drug adhering to the outer surface. The valve was immersed in diluent (acetonitrile:water 75:25 v/v) and sonicated for approximately 2 hours followed by shaking for at least 30 minutes. An aliquot was removed and analyzed for drug content by conventional HPLC analysis (albuterol sulfate and pirbuterol acetate: 55% 100 mM triethylamine phosphate with 5 mM sodium dodecyl sulfate, pH 2.5/45% methanol v:v, UV detection at 225 nm; flunisolide hemihydrate: 60% water/40% acetonitrile v:v, UV detection at 244 nm). Results are reported as an average of 5 to 8 replicates unless otherwise noted.
Individual valve components (stem, tank, spring, ferrule, and bottle emptier) were initially soaked in isopropanol (analytical reagent grade) for 30 minutes while exposed to ultrasonic agitation. Excess solvent was removed and the components were air dried.
The valve components were then immersed in a 0.1% w/w solution of A1 in methyl tertiary butyl ether (analytical reagent grade) in a sealed flask with a vacuum valve that was placed in a sonicator bath. The flask was sonicated and a vacuum was pulled until air escaped from the small bore in the stems (at least 2 minutes). The vacuum valve was then closed and the sample maintained under vacuum and sonication for an additional 30 minutes. Excess coating solution was then removed and the metering valves were rinsed and sonicated under vacuum in fresh isopropanol (analytical reagent grade) for 15 minutes. Excess rinsing solution was then removed and the metering valves were rinsed and sonicated under vacuum a second time in fresh isopropanol (analytical reagent grade) for 15 minutes. Excess rinsing solution was again removed and the metering valves were dried at 50° C. for at least 12 hours. The components were then assembled to form treated metered dose inhaler metering valves.
[…] Approximately 8.7 g of medicinal formulation was added to an aluminum canister with an internal coating of FEP (tetrafluoroethylene/hexafluoropropylene copolymer). The canister was then sealed by crimping a treated valve onto the canister to form an MDI. The MDIs were stored in a valve down orientation after filling to ensure contact of the formulation with the valve. The amount of albuterol sulfate adsorbed to the valve was 112 (+/−25) μg measured according to the valve deposition method described above.

[3] = Visual observation of the inside surface of the metering tanks
[4] = Drug adsorption to aluminum MDI canister on storage; conditions: 3 days at room temperature
Experimental: (§1) The internal surface of an aluminum metered dose inhaler canister was treated with compound A1 (n-C4F9—(CH2)11—PO3H2) which may be prepared as described in Example 2 of U.S. Pat. No. 6,824,882, the disclosure of which is hereby incorporated by reference) as follows. The canister was initially soaked in heptane (analytical reagent grade) for 30 minutes while exposed to ultrasonic agitation. The canister was then rinsed with heptane (analytical reagent grade) for one minute followed by a rinse with isopropanol (analytical reagent grade) and allowed to air dry. The canister was then immersed in a 0.1% w/w solution of A1 in methyl tertiary butyl ether (analytical reagent grade) for 30 minutes while exposed to ultrasonic agitation. The canister was then rinsed in methyl tertiary butyl ether (analytical reagent grade) for one minute and allowed to air dry.
Fluticasone propionate was added to HFA-134A propellant to prepare a medicinal formulation with a fluticasone propionate concentration of 0.0083% w/w. Approximately 13 g of medicinal formulation was added to the treated canister which was sealed with an untreated aluminum blind ferrule (i.e., a casing member lacking valve components). The canister was stored in an upright position after filling to prevent contact of the medicinal formulation with the untreated aluminum surface of the blind ferrule. The solution was stored in the canister for 3 days at room temperature. The amount of fluticasone propionate adsorbed to the canister was 2.4% (+/−1.1%) measured according to the method described above.
A canister was prepared and tested as described in Example 1 with the exception that the canister was filled with a 0.0083% w/w formulation of fluticasone propionate in HFA-227. The solution was stored in the canister for 3 days at room temperature. The amount of fluticasone propionate adsorbed to the canister was 9.7% (+/−6.5%) measured according to the method described above.
An untreated aluminum canister was filled with the medicinal formulation of Example 1. The solution was stored in the canister for 3 days at room temperature. The amount of fluticasone propionate adsorbed to the canister was 23.2% (+/−1.5%) measured according to the method described above.
An untreated aluminum canister was filled with the medicinal formulation of Example 2. The solution was stored in the canister for 3 days at room temperature. The amount of fluticasone propionate adsorbed to the canister was 35.5% (+/−1.8%) measured according to the method described above.

[5] = Total drug content of canisters filled from stainless steel filling system (HPLC); conditions: 0.0083% w/w suspension in HFA-227a
Experimental: The vessel was initially soaked in heptane (analytical reagent grade) for 30 minutes while exposed to ultrasonic agitation. The vessel was then rinsed with heptane (analytical reagent grade) for one minute followed by a rinse with isopropanol (analytical reagent grade) and allowed to air dry. The vessel was then immersed in a 0.1% w/w solution of A1 in methyl tertiary butyl ether (analytical reagent grade) for 30 minutes while exposed to ultrasonic agitation. The vessel was then rinsed in methyl tertiary butyl ether (analytical reagent grade) for one minute and allowed to air dry. Additional components of the filling system that contact medicinal formulation during the filling process (solenoid, tubing, stirring paddles, mixing baffles) were treated in the same manner as the vessel.
HFA-227a (600.7 g) was chilled and added to the filling vessel. […] The total drug content (i.e., drug suspended in formulation, as well as drug adhered to the canister) of 6 representative canisters (numbers 9, 11, 13, 14, 16, and 18 in the filling sequence) was analyzed using high performance liquid chromatography. A target total drug content was calculated based on the exact amount of formulation added to each canister and the nominal concentration in the filling vessel. […]

[6] = Triamcinolone acetonide remaining after storage in stainless steel canister (HPLC); conditions: 2 mM in ethanol
Experimental: as §1, with “a stainless steel” for “an aluminum”, “(n-C4F9—(CH2)11—PO3H2)” for “(n-C4F9—(CH2)11—PO3H2) which may be prepared as described in Example 2 of U.S. Pat. No. 6,824,882, the disclosure of which is hereby incorporated by reference)”
A triamcinolone stock solution (2 mM) was prepared by adding triamcinolone acetonide to ethanol. The canister was filled with 5 mL of the triamcinolone stock solution, sealed and stored at 70° C. An extract of the triamcinolone solution was taken after one day of storage and analyzed using high performance liquid chromatography to determine remaining drug content. […] An extract of the triamcinolone solution was taken after 7 days of storage and analyzed using high performance liquid chromatography to determine remaining drug content. The amount of triamcinolone acetonide remaining after 7 days was 83.0%.
An untreated stainless steel canister was filled with the medicinal formulation of Example 11. The amount of triamcinolone acetonide remaining after 1 day was 88.0%. An extract of the triamcinolone solution was taken after 7 days of storage and analyzed using high performance liquid chromatography to determine remaining drug content. The amount of triamcinolone acetonide remaining after 7 days was 18.0%.

[7] = A1-treated valve, 0.02% w/w in HFA-227
[8] = untreated valve, 0.02% w/w in HFA-227
[9] = A1-treated valve vs untreated valves, 0.02% w/w in HFA-227
[10] = A1-treated valve, 0.05% w/w and 10% w/w ethanol in HFA-227
[11] = untreated valve, 0.05% w/w and 10% w/w ethanol in HFA-227

Compound: CC(C)CCCC(C)CCCC(C)CCCC(C)CCP(=O)(O)O (stereo not drawn) [A2, 1-phosphono-3,7,11,15-tetramethylhexadecane]
- % TA remaining ([1]; 24 h, 4 mM): 97.4 (+/−0.1) %

Compound: CCCCCCCCCCCCCCCCP(=O)(O)O [A3, 1-phosphonohexadecane]
- % TA remaining ([1]; 24 h, 4 mM): 93.2 (+/−3.6) %

Compound: CC(C)CCCC(C)CCCC(C)CCCC(C)CCC(=O)O (stereo not drawn) [A5, Phytanyl carboxylic acid]
- % TA remaining ([1]; 24 h, 4 mM): 71.5 (+/−3.2) %

Compound: CC1(C)O[C@@H]2C[C@H]3[C@@H]4C[C@H](F)C5=CC(=O)C=C[C@]5(C)[C@H]4[C@@H](O)C[C@]3(C)[C@]2(C(=O)CO)O1 [flunisolide]
- amount of drug adsorbed to the valve [2, 7]: 23 (+/−7) μg
- amount of drug adsorbed to the valve [2, 8]: 41 (+/−7) μg
- visual observation of drug deposition in metering tanks [3, 9]: considerably less drug deposition

Compound: CCC(=O)O[C@]1(C(=O)SCF)[C@H](C)C[C@H]2[C@@H]3C[C@H](F)C4=CC(=O)C=C[C@]4(C)[C@@]3(F)[C@@H](O)C[C@@]21C [fluticasone propionate]
- amount of fluticasone propionate adsorbed to the canister ([4]; A1-treated aluminum canister, 0.0083% w/w in HFA-134A): 2.4%
- amount of fluticasone propionate adsorbed to the canister ([4]; A1-treated aluminum canister, 0.0083% w/w in HFA-227): 9.7%
- amount of fluticasone propionate adsorbed to the canister ([4]; untreated aluminum canister, 0.0083% w/w in HFA-134A): 23.2%
- amount of fluticasone propionate adsorbed to the canister ([4]; untreated aluminum canister, 0.0083% w/w in HFA-227): 35.5%
- average total drug content in the filled canisters, less than the target total drug content ([5]; A1-treated stainless steel filling system, 6 canisters): 2%
- average total drug content in the filled canisters, less than the target total drug content ([5]; untreated stainless steel filling system): 58%

Compound: CC1(C)O[C@@H]2C[C@H]3[C@@H]4CCC5=CC(=O)C=C[C@]5(C)[C@@]4(F)[C@@H](O)C[C@]3(C)[C@]2(C(=O)CO)O1 [triamcinolone acetonide]
- % TA remaining ([1]; untreated aluminum oxide powder (C3), 4 mM triamcinolone acetonide in ethanol, 70° C, 1 day): 11.5 (+/−1.2) %
- amount of triamcinolone acetonide remaining ([6]; A1-treated stainless steel canister, 70° C, 1 day): 94.9%
- amount of triamcinolone acetonide remaining ([6]; A1-treated stainless steel canister, 70° C, 7 days): 83.0%
- amount of triamcinolone acetonide remaining ([6]; untreated stainless steel canister, 1 day): 88.0%
- amount of triamcinolone acetonide remaining ([6]; untreated stainless steel canister, 7 days): 18.0%

Compound: albuterol sulfate
- amount of drug adsorbed to the valve [2, 10]: 67 (+/−18) μg
- amount of drug adsorbed to the valve ([2]; A1-treated valve, 0.05% w/w in HFA-134A, stored valve down): 112 (+/−25) μg
- amount of drug adsorbed to the valve ([2]; A1-treated valve, 0.05% w/w in HFA-227): 134 (+/−54) μg
- amount of drug adsorbed to the valve [2, 11]: 75 (+/−9) μg
- amount of drug adsorbed to the valve ([2]; untreated valve, 0.05% w/w in HFA-134A): 138 (+/−24) μg
- amount of drug adsorbed to the valve ([2]; untreated valve, 0.05% w/w in HFA-227): 167 (+/−28) μg
- visual observation of drug deposition in metering tanks ([3]; A1-treated valve vs untreated valves, 0.05% w/w in HFA-134A): considerably less drug deposition
- visual observation of drug deposition in metering tanks ([3]; A1-treated valve vs untreated valves, 0.05% w/w in HFA-227): considerably less drug deposition
- visual observation of drug deposition in metering tanks [3, 10]: minimal drug deposition
- visual observation of drug deposition in metering tanks [3, 11]: minimal drug deposition

Compound: pirbuterol acetate
- amount of drug adsorbed to the valve [2, 7]: 36 (+/−13) μg
- amount of drug adsorbed to the valve [2, 8]: 43 (+/−12) μg
- visual observation of drug deposition in metering tanks [3, 9]: considerably less drug deposition
